Experimental findings from patent US20240376163A1, “PEPTIDE FOR INHIBITING CALCINEURIN AND USE THEREOF” (Seoul National University R&DB Foundation, priority 2023, published 2024) are described below.

One assay deals with calcineurin. Nature of the assay: Calcineurin cellular activity assay in Jurkat T cells. It counts as cell-based. The settings on record: Jurkat T cells expressing peptide or treated with FK506. The protocol: Calcineurin phosphatase activity was measured in vitro using the Calcineurin phosphatase assay kit (BML-AK804, Enzo Life Sciences, Farmingdale, NY, USA). GST or GST-tagged peptides were cultured with CNA for 30 min at room temperature and then performed according to the manufacturer's instructions. Jurkat T cells were transiently transfected with CAG-HA-mCherry-peptide by electroporation endogenous calcineurin phosphatase activity. After 24 hours, the Jurkat T cells were pretreated with FK506 for 1 hour before activation with PMA and ionomycin. Thereafter, the cells were washed with TBS buffer (20 mM Tris, pH 7.2, 150 mM NaCl), resuspended with lysis buffer in a calcineurin cell activity assay kit (BML-AK816, Enzo Life Sciences), and stored on ice for 30 min. Lysate supernatants were collected by gel filtration using Desaltting Column Resin included in the kit, free phosphate was removed, and performed according to the manufacturer's instructions.

The next assay concerns NFATC2. Put plainly: NFAT mobility shifting assay in Jurkat T cells. It counts as cell-based. To be noted: PMA and ionomycin. The protocol:
In FIG. 2A, a luciferase reporter assay was performed to measure NFAT transcriptional activity. Jurkat T cells expressing GST-tagged peptides were treated with PMA and ionomycin for activation. Jurkat T cells expressing only GST were used as negative controls, and cells treated with 0.5 μM FK506 were used as positive controls (n=3). In FIG. 2B, an NFAT mobility shifting assay was performed using Jurkat T cells expressing HA-mCherry-tagged peptides. For dephosphorylation of NFATC2, Jurkat T cells were treated with PMA and ionomycin for 2 hours. In FIG. 2C, the hyperphosphorylated and hypophosphorylated NFATC2 of FIG. 2B was measured using ImageJ, and the hypo/hyper ratio was calculated (n=7). In FIG. 2D, snapshot images of the indicated peptides and activated Jurkat T cells expressing tNFATC2 were obtained using a confocal microscope. Expression and intracellular localization of peptides and tNFATC2 are indicated by mCherry (red) and EGFP (green), respectively. […] In FIG. 2E, tNFATC2 located in the nucleus was measured by calculating a ratio at which Hoechst (M1) and EGFP (M2) were present together. […] The data were repeated independently as many times as described and are expressed as means±standard deviation. Statistical differences were determined using two-sided Student's t-test (A, C) or one-way analysis of variance (E). *** p<0.001, NC: negative control. […]

The test system of a further assay is tNFATC2. Put plainly: Confocal microscopy of nuclear-localized tNFATC2 in Jurkat T cells. It counts as cell-based. To be noted: activated Jurkat T cells. The protocol: Jurkat T cells were transfected with pCAG-EGFP-tNFATC2-IRES-mCherry-peptide by electroporation. Two days later, these cells were pretreated with […] for 30 min. Afterwards, they were treated with 40 nM PMA and 1 μM ionomycin for 4 hours under culture conditions. Nuclei were stained by treating these cells with 10 μg/ml Hoechst 33342 (Invitrogen, Waltham, MA, USA) before imaging with a confocal laser scanning microscopy (Nikon, Tokyo, Japan). Colocalization analysis of […] and Hoechst was performed with ImageJ and corresponding plug-in JACoP to measure the Manders coefficient (Manders, E. M. et al., J. Cell Sci. 103, 857-862 (1992), Bolte, J. Microsc. 224, 213-232 (2006)).

For the next assay, the target named is T1, CNAβ2 (Homo sapiens, UniProt P16298).
T1 construct: expressed in transfected cells; host or cells: HEK293T
T1 sequence (P63098 2-170 partner limits assumed, other chains not shown): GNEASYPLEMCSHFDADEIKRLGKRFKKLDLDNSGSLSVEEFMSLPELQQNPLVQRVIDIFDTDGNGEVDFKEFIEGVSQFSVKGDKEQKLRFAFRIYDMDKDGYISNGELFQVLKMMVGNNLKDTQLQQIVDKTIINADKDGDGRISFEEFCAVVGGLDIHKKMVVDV
Nature of the assay: Mammalian two-hybrid assay (GAL4 DBD-peptides, VP16 AD-CNAβ2, pG5-luc) in HEK293T cells. It counts as cell-based. To be noted: HEK293T. The procedure: (§1) To measure the transcriptional activity of NFAT, Jurkat T cells were cotransfected with GST-tagged peptides and NFAT-luc by electroporation. After 24 hours, the cells were pretreated with 0.5 μM FK506 for 1 hour and then treated with 40 nM PMA and 1 μM ionomycin for 8 hours. For mammalian two-hybrid assay, HEK293T cells were cotransfected with GAL4 DBD-tagged CABIN1, VIVIT, chimeric, and substituted peptides, VP16 activation domain-tagged CNAβ2, and pG5-luc (a luciferase reporter plasmid containing the GAL4 reaction promoter) for 24 hours. Harvested cells were lysed with luciferase assay lysis buffer (17 mM KH2PO4, 183 mM K2HPO4, pH 7.8, 0.2% [v/v] Triton X-100) and sonicated briefly. The luciferase activity against each cell lysate was measured using Infinite M200 (Tecan, Männedorf, and Switzerland). In addition, the expression level of the transfected protein was confirmed by Western blotting.

The next assay deals with His6-tagged CNA. Put plainly: In vitro peptide competition assay. In kind it is binding. The settings on record: VIVIT 15-mer and CABIN1-L-1 peptide, molar ratio 1:50 to 1:400. The protocol:
In FIG. 4A, an in vitro peptide competition assay was performed using VIVIT 15-mer and CABIN1-L-1 peptide in a dose-dependent manner. The molar ratio of GST-tagged peptide to competing peptide ranged from 1:50 to 1:400. In FIG. 4B, a mammalian two-hybrid assay was performed using VP16 AD-CNAβ2 and GAL4 DBD-peptide in HEK293T cells treated or not-treated with 1 μM ionomycin. The pM empty vector was used as a negative control. In FIG. 4C, a calcineurin cellular activity assay was performed using Jurkat T cells expressing HA-mCherry-tagged peptides. Jurkat T cells expressing only HA-mCherry were used as negative controls, and cells treated with FK506 were used as positive controls. […] Purified GST was used as a negative control. All experiments were repeated three times, and data were expressed as mean±standard deviation. Statistical differences were determined using one-way analysis of variance. * p<0.05, NS: no statistical significance, NC: negative control.

The next assay deals with Jurkat T cells. Put plainly: Real-time quantitative PCR of T-cell activation genes in Jurkat T cells. It counts as cell-based. The protocol: Jurkat T cells were collected by QIAzol Lysis Reagent (Qiagen) to extract total RNA. cDNA was reverse transcribed from the isolated RNA using AMV Reverse Transcriptase and random hexamers. Real-time quantitative PCR for each cDNA was performed using TB Green® Premix Ex Taq™ (TaKaRa, Kusatsu, Japan) in the CFX Connect Real-time PCR Detection System (Bio-Rad, Hercules, CA, USA), and normalized to expression of 18S rRNA or GAPDH.

Assay [1] concerns NFAT transcriptional activity. Nature of the assay: NFAT luciferase reporter assay in Jurkat T cells expressing GST-tagged peptides. In kind it is cell-based. To be noted: PMA and ionomycin treatment. The procedure:
as §1
(In general: In a reporter assay the amount or activity of a reporter protein is the signal.)

Consider `C=CC[C@@H]1/C=C(\C)C[C@H](C)C[C@H](OC)[C@H]2O[C@@](O)(C(=O)C(=O)N3CCCC[C@H]3C(=O)O[C@H](/C(C)=C/[C@@H]3CC[C@@H](O)[C@H](OC)C3)[C@H](C)[C@@H](O)CC1=O)[C@H](C)C[C@@H]2OC` [FK506, Tacrolimus, reference compound], for which the “calcineurin phosphatase activity in cells” value in the assay with calcineurin is listed as “reduced the phosphatase activity of CNA”. Further, in the assay on NFATC2, the “NFATC2 band shift (dephosphorylation)” value is recorded as “significantly inhibited NFATC2 band shift”. The “proportion of nuclear-localized tNFATC2” value with tNFATC2 was “lowest”.

For the compound PEITVTPPTP [CABIN1-L-1-2], in the assay with CNAβ2 (1 μM ionomycin), the “effect of ionomycin treatment on interaction with CNA” value is recorded as “did not affect the interaction”. Also, the “binding to CNA” value in the assay with CNAβ2 (GAL4 DBD-tagged peptides, VP16 activation domain-tagged CNA) is “still bound to CNA”. The “competition for CNA binding” value with His6-tagged CNA is “dose-dependently interfered with the interaction between GST-tagged VIVIT peptide and His6-tagged CNA”. The “NFATC2 band shift (dephosphorylation)” value with NFATC2 is recorded as “significantly inhibited NFATC2 band shift”. Further, the “RNA levels of T-cell activation genes by qRT-PCR” value with Jurkat T cells was “reduced RNA levels of these genes more effectively than VIVIT peptides”. Besides, in assay [1], the “NFAT transcriptional activity (luciferase activity)” value was “inhibited luciferase activity compared to the negative control” and the “inhibitory effect on NFAT luciferase activity relative to VIVIT peptide” value is given as “approximately 4 times”. Moreover, the “proportion of nuclear-localized tNFATC2” value with tNFATC2 is given as “slightly higher”.
